Assay results published in US10212936B2, “Molecules having pesticidal utility, and intermediates, compositions, and processes, related thereto” (priority 2014, dated 2019).

Tests used:
Format in all cases: in vivo
[1] = tested on: Beet Armyworm (Spodoptera exigua, LAPHEG); test: Bioassay on Beet Armyworm (BAW), 128-well diet tray assay; conditions: 168 h, 50 μg/cm^2 on artificial diet, second instar larvae, five to seven days, 25° C., read-out: BAW % Control (or Mortality) rating
Protocol: (§1) Example A: Bioassays on Beet Armyworm (Spodoptera exigua, LAPHEG) (“BAW”), Corn Earworm (Helicoverpa zea, HELIZE) (“CEW”), and Cabbage Looper (Trichoplusia ni, TRIPNI) (“CL”)
(§2) Certain molecules disclosed in this document were tested against BAW, CEW, and CL using procedures described in the following examples. In the reporting of the results, the “BAW, CEW, & CL Rating Table” was used (See Table Section).
Bioassays on BAW were conducted using a 128-well diet tray assay. one to five second instar BAW larvae were placed in each well (3 mL) of the diet tray that had been previously filled with 1 mL of artificial diet to which 50 μg/cm^2 of the test molecule (dissolved in 50 μL of 90:10 acetone-water mixture) had been applied (to each of eight wells) and then allowed to dry. Trays were covered with a clear self-adhesive cover and held at 25° C., 14:10 light-dark for five to seven days. Percent mortality was recorded for the larvae in each well; activity in the eight wells was then averaged. The results are indicated in the table entitled “Table ABC: Biological Results” (See Table Section).

[2] = tested on: Cabbage Looper (Trichoplusia ni, TRIPNI); test: Bioassay on Cabbage Looper (CL), 128-well diet tray assay; conditions: 168 h, 50 μg/cm^2 on artificial diet, second instar larvae, five to seven days, 25° C., read-out: CL % Control (or Mortality) rating
Protocol: as §1, §2
Bioassays on CL were conducted using a 128-well diet tray assay. one to five second instar CL larvae were placed in each well (3 mL) of the diet tray that had been previously filled with 1 mL of artificial diet to which 50 μg/cm^2 of the test molecule (dissolved in 50 μL of 90:10 acetone-water mixture) had been applied (to each of eight wells) and then allowed to dry. Trays were covered with a clear self-adhesive cover and held at 25° C., 14:10 light-dark for five to seven days. Percent mortality was recorded for the larvae in each well; activity in the eight wells was then averaged. The results are indicated in the table entitled “Table ABC: Biological Results” (See Table Section).

[3] = tested on: Yellow Fever Mosquito (Aedes aegypti, AEDSAE); test: Bioassay on Yellow Fever Mosquito (YFM) larvae, 96-well plate; conditions: about 1 day-old larvae, 4000 ppm DMSO master plate diluted, graded after 3 days
Protocol: Example C: Bioassays on Yellow Fever Mosquito (Aedes aegypti, AEDSAE) (“YFM”)
Certain molecules disclosed in this document were tested against YFM using procedures described in the following paragraph. In the reporting of the results, the “YFM Rating Table” was used (See Table Section).
Master plates containing 400 μg of a molecule dissolved in 100 μL of dimethyl sulfoxide (DMSO) (equivalent to a 4000 ppm solution) are used. A master plate of assembled molecules contains 15 μL per well. To this plate, 135 μL of a 90:10 water:acetone mixture is added to each well. A robot (Biomek® NXP Laboratory Automation Workstation) is programmed to dispense 15 μL aspirations from the master plate into an empty 96-well shallow plate (“daughter” plate). There are 6 reps (“daughter” plates) created per master. The created daughter plates are then immediately infested with YFM larvae.
The day before plates are to be treated, mosquito eggs are placed in Millipore water containing liver powder to begin hatching (4 g. into 400 mL). After the daughter plates are created using the robot, they are infested with 220 μL of the liver powder/larval mosquito mixture (about 1 day-old larvae). After plates are infested with mosquito larvae, a non-evaporative lid is used to cover the plate to reduce drying. Plates are held at room temperature for 3 days prior to grading. After 3 days, each well is observed and scored based on mortality. The results are indicated in the table entitled “Table ABC: Biological Results” (See Table Section).

[4] = tested on: Corn Earworm (Helicoverpa zea, HELIZE); test: Bioassay on Corn Earworm (CEW), 128-well diet tray assay; conditions: 168 h, 50 μg/cm^2 on artificial diet, second instar larvae, five to seven days, 25° C., read-out: CEW % Control (or Mortality) rating
Protocol: as §1, §2
Bioassays on CEW were conducted using a 128-well diet tray assay. one to five second instar CEW larvae were placed in each well (3 mL) of the diet tray that had been previously filled with 1 mL of artificial diet to which 50 μg/cm^2 of the test molecule (dissolved in 50 μL of 90:10 acetone-water mixture) had been applied (to each of eight wells) and then allowed to dry. Trays were covered with a clear self-adhesive cover, and held at 25° C., 14:10 light-dark for five to seven days. Percent mortality was recorded for the larvae in each well; activity in the eight wells was then averaged. The results are indicated in the table entitled “Table ABC: Biological Results” (See Table Section).

`O=C(Nc1ccc(-c2ncn(-c3ccc(OC(F)(F)F)cc3)n2)cc1)Nc1nonc1-c1ccccc1OC(F)(F)F` [F45, 1-(4-(2-(Trifluoromethoxy)phenyl)-1,2,5-oxadiazol-3-yl)-3-(4-(1-(4-(trifluoromethoxy)phenyl)-1H-1,2,4-triazol-3-yl)phenyl)urea] was tested, and the mortality at 50 µg/cm2 [1] was 50 to 100%, the mortality at 50 µg/cm2 [2] was 50 to 100% and the “YFM % Control (or Mortality) rating” value [3] was “A (80-100)”. The mortality at 50 µg/cm2 [4] was 50 to 100%.
For `Cc1ccc(-c2nonc2NC(=O)Nc2ccc(-c3ncn(-c4ccc(OC(F)(F)F)cc4)n3)cc2)c(C)c1` [F36, 1-(4-(2,4-Dimethylphenyl)-1,2,5-oxadiazol-3-yl)-3-(4-(1-(4-(trifluoromethoxy)phenyl)-1H-1,2,4-triazol-3-yl)phenyl)urea], the mortality at 50 µg/cm2 [1] was 50 to 100%, the mortality at 50 µg/cm2 [2] was 50 to 100% and the “YFM % Control (or Mortality) rating” value [3] was “A (80-100)”. It also gave a mortality at 50 µg/cm2 [4] of 50 to 100%.
`COc1cccc(-c2nonc2NC(=O)Nc2ccc(-c3ncn(-c4ccc(OC(F)(F)F)cc4)n3)cc2)c1` [F41, 1-(4-(3-Methoxyphenyl)-1,2,5-oxadiazol-3-yl)-3-(4-(1-(4-(trifluoromethoxy)phenyl)-1H-1,2,4-triazol-3-yl)phenyl)urea] was tested, and the mortality at 50 µg/cm2 [1] was 50 to 100%, the mortality at 50 µg/cm2 [2] was 50 to 100% and the “YFM % Control (or Mortality) rating” value [3] was “B (More than 0-Less than 80)”. For the same compound, the mortality at 50 µg/cm2 [4] was 50 to 100%.
For `Cc1cc(Cl)ccc1-c1nonc1NC(=O)Nc1ccc(-c2ncn(-c3ccc(OC(F)(F)F)cc3)n2)cc1` [F43, 1-(4-(4-Chloro-2-methylphenyl)-1,2,5-oxadiazol-3-yl)-3-(4-(1-(4-(trifluoromethoxy)phenyl)-1H-1,2,4-triazol-3-yl)phenyl)urea], the mortality at 50 µg/cm2 [1] was 50 to 100%, the mortality at 50 µg/cm2 [2] was 50 to 100% and the “YFM % Control (or Mortality) rating” value [3] was “A (80-100)”. It also gave a mortality at 50 µg/cm2 [4] of 50 to 100%.
With `O=C(Nc1ccc(-c2ncn(-c3ccc(OC(F)(F)C(F)(F)F)cc3)n2)cc1)Nc1nccn1-c1cccc(Cl)c1` [F35, 1-(1-(3-Chlorophenyl)-1H-imidazol-2-yl)-3-(4-(1-(4-(perfluoroethoxy)phenyl)-1H-1,2,4-triazol-3-yl)phenyl)urea] the mortality at 50 µg/cm2 [1] was 50 to 100%, the mortality at 50 µg/cm2 [2] was 50 to 100% and the “YFM % Control (or Mortality) rating” value [3] was “D (No activity noticed in this bioassay)”. The mortality at 50 µg/cm2 [4] was 50 to 100%.
`COc1ccc(-c2nonc2NC(=O)Nc2ccc(-c3ncn(-c4ccc(OC(F)(F)F)cc4)n3)cc2)cc1` [F39, 1-(4-(4-Methoxyphenyl)-1,2,5-oxadiazol-3-yl)-3-(4-(1-(4-(trifluoromethoxy)phenyl)-1H-1,2,4-triazol-3-yl)phenyl)urea] was tested, and the mortality at 50 µg/cm2 [1] was 0 to 50%, the mortality at 50 µg/cm2 [2] was 50 to 100% and the “YFM % Control (or Mortality) rating” value [3] was “D (No activity noticed in this bioassay)”. For the same compound, the mortality at 50 µg/cm2 [4] was 50 to 100%.
`CC(C)c1ccccc1-n1ccnc1NC(=O)Nc1ccc(-c2ncn(-c3ccc(OC(F)(F)C(F)(F)F)cc3)n2)cc1` [F34, 1-(1-(2-isopropylphenyl)-1H-imidazol-2-yl)-3-(4-(1-(4-(perfluoroethoxy)phenyl)-1H-1,2,4-triazol-3-yl)phenyl)urea] was tested, and the mortality at 50 µg/cm2 [1] was 50 to 100%, the mortality at 50 µg/cm2 [2] was 50 to 100% and the “YFM % Control (or Mortality) rating” value [3] was “D (No activity noticed in this bioassay)”. It also gave a mortality at 50 µg/cm2 [4] of 50 to 100%.
`COc1ccccc1-c1nonc1NC(=O)Nc1ccc(-c2ncn(-c3ccc(OC(F)(F)F)cc3)n2)cc1` [F38, 1-(4-(2-Methoxyphenyl)-1,2,5-oxadiazol-3-yl)-3-(4-(1-(4-(trifluoromethoxy)phenyl)-1H-1,2,4-triazol-3-yl)phenyl)urea] was tested, and the mortality at 50 µg/cm2 [1] was 50 to 100%, the mortality at 50 µg/cm2 [2] was 50 to 100% and the “YFM % Control (or Mortality) rating” value [3] was “A (80-100)”. The mortality at 50 µg/cm2 [4] was 50 to 100%.
For `O=C(Nc1ccc(-c2ncn(-c3ccc(OC(F)(F)F)cc3)n2)cc1)Nc1nonc1-c1c(Cl)cccc1Cl` [F42, 1-(4-(2,6-Dichlorophenyl)-1,2,5-oxadiazol-3-yl)-3-(4-(1-(4-(trifluoromethoxy)phenyl)-1H-1,2,4-triazol-3-yl)phenyl)urea], the mortality at 50 µg/cm2 [1] was 50 to 100%, the mortality at 50 µg/cm2 [2] was 50 to 100% and the “YFM % Control (or Mortality) rating” value [3] was “D (No activity noticed in this bioassay)”. The mortality at 50 µg/cm2 [4] was 50 to 100%.
With `CCc1ccccc1-c1nonc1NC(=O)Nc1ccc(-c2ncn(-c3ccc(OC(F)(F)F)cc3)n2)cc1` [F44, 1-(4-(2-Ethylphenyl)-1,2,5-oxadiazol-3-yl)-3-(4-(1-(4-(trifluoromethoxy)phenyl)-1H-1,2,4-triazol-3-yl)phenyl)urea] the mortality at 50 µg/cm2 [1] was 50 to 100%, the mortality at 50 µg/cm2 [2] was 50 to 100% and the “YFM % Control (or Mortality) rating” value [3] was “D (No activity noticed in this bioassay)”. It also gave a mortality at 50 µg/cm2 [4] of 50 to 100%.
With `Cc1cc(C)c(-c2nonc2NC(=O)Nc2ccc(-c3ncn(-c4ccc(OC(F)(F)F)cc4)n3)cc2)c(C)c1` [F40, 1-(4-Mesityl-1,2,5-oxadiazol-3-yl)-3-(4-(1-(4-(trifluoromethoxy)phenyl)-1H-1,2,4-triazol-3-yl)phenyl)urea] the mortality at 50 µg/cm2 [1] was 50 to 100%, the mortality at 50 µg/cm2 [2] was 50 to 100% and the “YFM % Control (or Mortality) rating” value [3] was “B (More than 0-Less than 80)”. The mortality at 50 µg/cm2 [4] was 50 to 100%.
In the case of `FC(F)(F)Oc1ccc(-n2cnc(-c3ccc(CCNC(=S)Nc4ccnn4-c4ccccc4)cc3)n2)cc1` [F65, 1-(1-phenyl-1H-pyrazol-5-yl)-3-(4-(1-(4-(trifluoromethoxy)phenyl)-1H-1,2,4-triazol-3-yl)phenethyl)thiourea], the mortality at 50 µg/cm2 [1] is reported as 50 to 100%, the mortality at 50 µg/cm2 [2] is reported as 50 to 100% and the “YFM % Control (or Mortality) rating” value [3] is reported as “A (80-100)”. For the same compound, the mortality at 50 µg/cm2 [4] was 50 to 100%.
For `O=C(Nc1ccc(-c2ncn(-c3ccc(OC(F)(F)F)cc3)n2)cc1)Nc1nonc1-c1ccccc1` [F37, 1-(4-Phenyl-1,2,5-oxadiazol-3-yl)-3-(4-(1-(4-(trifluoromethoxy)phenyl)-1H-1,2,4-triazol-3-yl)phenyl)urea], the mortality at 50 µg/cm2 [1] was 50 to 100%, the mortality at 50 µg/cm2 [2] was 50 to 100% and the “YFM % Control (or Mortality) rating” value [3] was “A (80-100)”. It also gave a mortality at 50 µg/cm2 [4] of 50 to 100%.
